Non-standard residues stand in square brackets, D forms with d. Residues, ends and D or L forms follow the SMILES beside them. Nle = CCCC[C@H](N)C(=O)O
What was measured:
[1] = molecular target: T1, catalytic subunit β1 of a proteasome (caspase-like activity) (Homo sapiens, UniProt P28072); settings: reported by Kaiser et al., Chem. Bio. Chem., 2004; cited from earlier work
T1 construct: purchased Bioscience

[2] = test system: senescence-associated acidic β-galactosidase (SA-β-gal) inducing TIG3 cells; assay: FACS analysis of SA-β-gal in doxorubicin senescence-induced TIG3 cells (anti-aging action); assay type: cell-based, human; settings: doxorubicin 150 nM alone vs no doxorubicin
Protocol: In Example 5, an anti-aging action in a senescence-associated acidic β-galactosidase (SA-β-gal) inducing TIG3 cells (human embryonic fibroblast) in which TIBC-CANDDY_MLN had been added was evaluated by FACS analysis.
TIG3 cells as normal cells were seeded in a 24-well plate at a cell density of 8×10^4 cells/well, and then cultured under conditions of 37° C. and 5 vol % CO2 for 16 hours.
After 16 hours from cell seeding, doxorubicin was added to each well at 150 nM/well to induce cellular senescence. As a medium, a serum-free medium (37° C.) in which 1 mass % L-glutamine solution (Sigma-Aldrich) was added to D-MEM (high D-glucose, phenol red, sodium pyruvate (Wako Pure Chemical Industries, Ltd.)) was used. It is noted that the L-glutamine solution was added immediately before use. After the addition of doxorubicin, culture was performed under conditions of 37° C. and 5 vol % CO2 for 24 hours.
After 24 hours from induction of senescence, TIBC-CANDDY_MLN was added to TIG3 cells as follows. As a medium, a serum-free medium (37° C.) in which 1 mass % L-glutamine solution (Sigma-Aldrich) was added to D-MEM (high D-glucose, phenol red, sodium pyruvate (Wako Pure Chemical Industries, Ltd.)) was used. It is noted that the L-glutamine solution was added immediately before use. A DMSO solution containing TIBC-CANDDY_MLN was mixed with the medium so that the concentration of DMSO was 1 vol %, and added to each well at 500 μL/well, and cultured under conditions of 37° C. and 5 vol % CO2 for 48 hours. As a control, DMSO was used.
For quantification of SA-β-gal as a senescence marker, a commercially available kit (Cellular Senescence Detection Kit-SPiDER-βGal (DOJINDO LABORATORIES)) was used. […]
A BD FACSCanto™ II (BD Biosciences) was used for flow cytometry to detect SA-β-gal labeled with FITC. […] A histogram of the FITC strength was created by an analysis software FlowJo™ (TOMY Digital Biology Co., Ltd.), and the senescence suppressing action by TIBC-CANDDY_MLN was evaluated from a shift in the histogram.

[3] = molecular target: T1, catalytic subunit β1 of a proteasome (caspase-like activity); assay: 20S Proteasome StressXpress Assay Kit, AMC substrate, β1; assay type: biochemical
Protocol: (§1) In Reference Example 2, the proteasome inhibitory activity of TMP-CANDDY_DMT and the affinity of TMP-CANDDY_DMT with a proteasome were evaluated. As a positive control, MG-132 as a proteasome inhibitor was used.
(§2) For evaluation, 20S Proteasome StressXpress™ Assay Kit Gold (Bioscience) was used. AMC was measured by using Multi-Detection Microplate Reader (Synergy HT, BIO-TEK). The AMC was produced by cleaving the C-terminus of an AMC-binding proteasome fluorescence substrate specific to β subunits of a 20S proteasome, including β5 (chymotrypsin-like activity), β2 (trypsin-like activity), and β1 (caspase-like activity). The measuring wavelengths were 360 nm for excitation light (Ex.), and 460 nm for fluorescence (Em.).
(§3) In Reference Example 6, as in Reference Example 2, a proteasome inhibitory activity of TMP-CANDDY_ALLN and an affinity of TMP-CANDDY_ALLN with a proteasome were evaluated.

[4] = test system: ecDHFR protein (fusion protein of an ecDHFR protein and GFP through a HA tag); assay type: cell-based, human; settings: HeLa cells, 24 hours after addition, vs DMSO control
[5] = molecular target: T2, catalytic subunit β2 of the proteasome (trypsin-like activity) (Homo sapiens, UniProt Q99436); assay: 20S Proteasome StressXpress Assay Kit, AMC substrate, β2; assay type: biochemical
T2 construct: purchased Bioscience
Protocol: as §1, §2, §3

20S proteasome = molecular target: T3, 20S proteasome (Homo sapiens, UniProt P28072+P28074+Q99436); assay: Affinity with a proteasome, evaluated from the 20S proteasome activity assay; assay type: biochemical; settings: concluded from the concentration dependent inhibitory activity
T3 construct: purchased Bioscience
Protocol: as §1, §2, §3

[6] = molecular target: T4, catalytic subunit β5 of the proteasome (chymotrypsin-like activity) (Homo sapiens, UniProt P28074); assay: 20S Proteasome StressXpress Assay Kit, AMC substrate, β5; assay type: biochemical
T4 construct: purchased Bioscience
Protocol: as §1, §2, §3

[7] = test system: ecDHFR protein (fusion protein of an ecDHFR protein and GFP through a HA tag); assay: Western blot of degradation of forcibly expressed ecDHFR protein in HeLa cells; assay type: cell-based, human

| SMILES | inhibition of β1 [1] | shift to SA-β-gal (senescence marker) positive (FACS histogram) [2] | concentration dependence of inhibitory activity against β1 [3] | degradation (knockdown) of the ecDHFR protein (shift of GFP/DsRed graph, FACS) [4] | concentration dependence of inhibitory activity against β2 [5] | proteasome inhibitory activity against β2 compared with the reference proteasome inhibitor [5] | affinity with a proteasome (20S proteasome) | concentration dependence of inhibitory activity against β5 [6] | proteasome inhibitory activity against β5 compared with the reference proteasome inhibitor [6] | proteasome inhibitory activity against β1 compared with the reference proteasome inhibitor [3] | amount of the ecDHFR protein (Western blot) ([7]; 24 hours after addition, cycloheximide 50 μg/mL added at 12 hours) | degradation of the ecDHFR protein when bortezomib is added as well ([7]; both TMP-CANDDY_DMT and bortezomib added, compared with TMP-CANDDY_DMT alone) |
| --- | --- | --- | --- | --- | --- | --- | --- | --- | --- | --- | --- | --- |
| CCCC[C@@H](C=O)NC(=O)[C@H](CC(C)C)NC(=O)[C@H](CC(C)C)NC(C)=O [ALLN, Calpain Inhibitor I] (Ac-Leu-Leu-[Nle]-aldehyde) | not inhibited |  |  |  |  |  |  |  |  |  |  |  |
| COc1cccc2c1C(=O)c1c(O)c3c(c(O)c1C2=O)C[C@@](O)(C(=O)CO)C[C@@H]3O[C@H]1C[C@H](N)[C@H](O)[C@H](C)O1 [doxorubicin, reference compound] |  | a shift to SA-β-gal (senescence marker) positive was observed |  |  |  |  |  |  |  |  |  |  |
| CCCC[C@H](NC(=O)[C@H](CC(C)C)NC(=O)[C@H](CC(C)C)NC(C)=O)C(=O)NCCCCCCNC(=O)COc1c(OC)cc(Cc2cnc(N)nc2N)cc1OC [TMP-CANDDY_ALLN] |  |  | in a concentration dependent manner | degradation of the ecDHFR protein was induced | in a concentration dependent manner | the inhibitory activity was weakened | had an affinity with a proteasome | in a concentration dependent manner | the inhibitory activity was weakened |  |  |  |
| COc1nc(NCCCCCCNC(=O)COc2c(OC)cc(Cc3cnc(N)nc3N)cc2OC)nc(OC)n1 [TMP-CANDDY_DMT] |  |  | increased in a concentration dependent manner | degradation of the ecDHFR protein was induced | increased in a concentration dependent manner | significantly lower proteasome inhibitory activity as compared with MG-132 | moderate affinity | increased in a concentration dependent manner | significantly lower proteasome inhibitory activity as compared with MG-132 | significantly lower proteasome inhibitory activity as compared with MG-132 | reduced | degradation of the ecDHFR protein was inhibited |

Source: US11007269B2, “P53 degradation inducing molecule and pharmaceutical composition” (Tokyo University of Science Foundation, priority 2016, dated 2021)
